Here are results for two compounds from paper PMC11148078, “Potent activity of polymyxin B is associated with long-lived super-stoichiometric accumulation mediated by weak-affinity binding to lipid A” (Nature Communications, 2024).

“Also recorded” adds a separate entry of the source. Bridge positions count the residues as written; N and C are the ends. Square brackets hold non-standard residues; d marks the D form. Peptide text beside a SMILES is read from it. * marks the point of attachment. ξ: configuration not given here. Hexanoyl(4ξ-Me) = CCC(C)CCC(=O)*; dOrn = NCCC[C@@H](N)C(=O)O; Orn = NCCC[C@H](N)C(=O)O

Test [1] has as its system E. coli PmrA^G53E+rifampicin. Description: Rifampicin potentiation / outer membrane permeability, E. coli PmrA^G53E. The test is classed as cell-based. The protocol: (§1) Bacterial strains and plasmids are listed in SI Table S5. LB growth media was prepared according to manufacturer’s instructions and supplemented with 0.2% arabinose and carbenicillin (50 μg/mL) for the strains containing pBAD24-mcr1 plasmid. Cultures were started by inoculating 3 ml LB with 1–2 colonies from fresh overnight plates and grown at 37 °C until in log phase. Modified minimal inhibitory concentration (MIC) assays were performed in 96-well round bottom polystyrene plates (Corning) with a final volume of 100 µl in LB supplemented with tween-80 at 0.0005%. […] Polymyxin B sulfate (TCI Co. Ltd), polymyxin B nonapeptide (PMBN) (Sigma), and brevicidine (Genentech) were diluted directly in the assay plates. Bacteria were diluted in LB with tween-80 0.0005% and added to a final OD600 of 0.0005. Growth was measured via OD600 on a SpectraMax M5 plate reader after overnight static growth at 37 °C with humidity.

The next test has as its system E. coli mcr-1+rifampicin. In words: Rifampicin potentiation / outer membrane permeability, E. coli mcr-1. The test is classed as cell-based. The protocol: as §1
For test [2], the system named is wt-OMVs. In words: Single-cycle kinetic SPR binding to immobilized wt-OMVs. The settings on record: serial doubling injections, C1 chip. The arrangement: species or system E. coli. The protocol:
(§2) Polymyxin B was covalently attached to a C1 chip (Series S Sensor Chip C1, Cytiva) using an amine coupling kit (Cytiva). Cartoon in Fig. 1A created with BioRender (biorender.com). Briefly, equal amounts of reagents N-hydroxysuccinimide and 1-ethyl-3-(3-dimethylaminopropyl) carbodiimide hydrochloride were mixed as per manufacturer’s instructions and immediately added to the gold chip surface for 2 min, washed with distilled deionized water, and dried. Sufficient polymyxin B (1 mM in 1 M HEPES buffer, pH 8) was added to cover the chip surface, incubated at room temperature for 1 h, washed as before, and then incubated with 1 M ethanolamine hydrochloride-NaOH, pH 8.5, for 1 min. The chip surface was washed with water, dried as previously described, immediately loaded into a Biacore S200, and primed with running buffer (described below) to equilibrate the system. C1 chips were used for multiple runs and discarded upon removal from the Biacore S200.
(§3) SCK C1-chip SPR experiments were performed in running buffer (Dulbecco’s phosphate-buffered salt solution 1x without calcium or magnesium (Fisher Scientific), pH 7.4, with 0.0005% tween-80 (Sigma) passed through a 0.2 µm filter) unless otherwise indicated. Inclusion of tween-80 prevented loss of polymyxin to the plastics[34] (also see Supplementary Information Methods). For experiments with brevicidine, which was suspended in DMSO, 0.125% DMSO was included in the running buffer. OMVs were diluted from frozen stocks to approximately 20–30 µg/ml protein in the OMV buffer. Capture of OMVs was performed at a low flow rate ([…]) for 300 s over the test channel(s) followed by a 300 s stabilization period. All subsequent steps were at a flow rate of […]. For single cycle kinetics, two-fold dilutions were injected over the channel(s) loaded with OMVs and a reference channel without OMVs for 30 s contact and 480 s dissociation. To regenerate chips, 0.5% SDS (desorb 1, Cytiva) was injected into all channels for 60 s at 30 µl/ml twice, with an extra buffer wash and four carry-over control steps to prevent residual SDS from disrupting the following cycle.
All single-cycle kinetic SPR traces shown were double-referenced (unless indicated) within the Biacore S200 Evaluation Software 1.0, exported as a.txt file, and imported (decimated) into GraphPad Prism (version 9.3.1 for Mac, GraphPad Software, San Diego, CA). For clarity, in some cases individual outlier data points (at buffer transitions) were removed when this would not change the overall data or conclusions.

The subject of a further test is E. coli WT+rifampicin. Description: Rifampicin potentiation / outer membrane permeability, wild-type E. coli. The test is classed as cell-based. The settings on record: rifampicin 1.56 µM; LB + 0.0005% tween-80, overnight 37 °C. As to the method:
as §1

Test [3] relates to wt-OMVs. Description: SPR chaser analysis (residence time), wt-OMVs. The test is classed as binding, E. coli. The settings on record: 25 °C, n≥3, (SD). The protocol: (§4) The off-rate of the tightly bound fraction was estimated using a chaser analysis, where OMVs were pre-saturated with polymyxin B and then re-saturated after an extended time interval (Supplementary Information Fig. S11A). […] A t1/2 of >6 h was determined for polymyxin B binding to OMVs at both 25 and 37 °C (SI Table S3). The t1/2 of brevicidine, also measured by chaser analysis, was approximately 1 h on both wt-OMVs and polymyxin-resistant-OMVs (SI Table S3).
(§5) Binding and kinetic analysis of SPR-OMV assays […]
To determine the residence time of the test compound with OMVs, the ‘chaser method’ was used because it accounts for drift that can occur in the system over long incubation times 13. OMVs were loaded onto the chip as described above then 5 µM polymyxin B was injected using the ‘low-sample consumption’ setting for 300 sec ([…] flow rate), followed by a 240 sec dissociation time. A second dose of 5 µM polymyxin B was then injected for 60 sec ([…]) to assure saturation followed by a 2 h dissociation time prior to the ‘chaser’, a 60 sec pulse of 5 µM polymyxin B. The RUs of associated polymyxin B were determined 120 sec after the start of the dissociation. The change in RUs from before dosing to after the second dose, and the change in RUs from prior to the ‘chaser’ dose and 120 sec after the start of its dissociation were used to calculate the fraction occupancy of the material and the residence time/half-life as described 13. […]
PMBN) to LPS for 20 min. […]
20 sec with a Solarus plasma cleaner (Gatan). Grids were blotted and plunge-frozen by Vitrobot (ThermoFisher Scientific, Waltham, MA) at 4°C, 100% relative humidity, blot force 7, and a 3 sec […]
TEM data collection was performed using a Titan Krios G3i (ThermoFisher Scientific, Waltham, MA) operating at 300 kV equipped with a BioQuantum energy filter and a K3 Summit direct electron detector operating at a nominal magnification of 105,000x (0.838 Å/pixel), an energy slit width of 20 eV, defocus range -1 to -3 μm, 3-sec exposure time, 60 frames per movie, a total electron fluence of ~64 e/Å2. Microscope and camera automation was accomplished by SerialEM14, and image processing (motion correction & CTF estimation) was performed using […]
Standard cryo-EM image processing software and methods were incompatible with the vesicle images, so a blinded visual scoring method for image analysis was used. Approximately 50 images from each sample and treatment condition that each contained at least one OMV (pooled in a single folder and blinded) were scored for number of vesicles touching (0-10+), and if the vesicle membranes appeared disrupted or abnormal. Sampling was not completely random as images of vesicles could not be obtained from areas with significant clumping. Images shown in […]

In a further test the test system is resistant-OMVs. Description: SPR chaser analysis (residence time), resistant-OMVs. The test is classed as binding, E. coli. As to the method: as §4, §5
To determine the residence time of the test compound with OMVs, the ‘chaser method’ was used because it accounts for drift that can occur in the system over long incubation times 13. […] A second dose of 5 µM polymyxin B was then injected for 60 sec ([…]) to assure saturation followed by a 2 h dissociation time prior to the ‘chaser’, a 60 sec pulse of 5 µM polymyxin B. The RUs of associated polymyxin B were determined 120 sec after the start of the dissociation. […]
Standard cryo-EM image processing software and methods were incompatible with the vesicle images, so a blinded visual scoring method for image analysis was used. Approximately 50 images from each sample and treatment condition that each contained at least one OMV (pooled in a single folder and blinded) were scored for number of vesicles touching (0-10+), and if the vesicle membranes appeared disrupted or abnormal. […]

A further test concerns E. coli PmrA^G53E. The test is classed as cell-based. The protocol:
as §1

The next test deals with S. aureus WT. The test is classed as cell-based. The settings on record: LB + 0.0005% tween-80, overnight 37 °C. The protocol: as §1
In a further test the test system is E. coli mcr1. The test is classed as cell-based. The settings on record: pBAD-mcr-1. The protocol: as §1
Test [4] has as its system resistant-OMVs (E. coli PmrA^G53E). Description: Single-cycle kinetic SPR binding to immobilized resistant-OMVs. The settings on record: serial doubling injections, C1 chip. The protocol:
as §2
as §3, with “To regenerate chips, 0.5% SDS (desorb 1, Cytiva) was injected into all channels for 60 s at 30 µl/ml twice, with an extra buffer wash and four carry-over control steps to prevent residual SDS from disrupting the following cycle.” left out
Background: Surface plasmon resonance follows binding to a sensor surface in real time, without labels.

By MIC is commonly meant the least concentration at which growth counts as inhibited. Regarding `CCC(C)CCC(=O)N[C@H](CC(N)=O)C(=O)N[C@H](Cc1ccc(O)cc1)C(=O)N[C@H](Cc1c[nH]c2ccccc12)C(=O)N[C@H](CCCN)C(=O)N[C@@H](CCCN)C(=O)NCC(=O)N[C@H](CCCN)C(=O)N[C@@H](Cc1c[nH]c2ccccc12)C(=O)N[C@@H]1C(=O)N[C@@H]([C@@H](C)CC)C(=O)NCC(=O)N[C@@H](CO)C(=O)O[C@@H]1C` (stereo partly drawn) [Brevicidine] ({Hexanoyl(4ξ-Me)}-[dN][dY][dW][dOrn][Orn]G[dOrn]WTIGS; ester 9-C; N-terminus assumed), the “MIC in presence of rifampicin” value (in test [1]; in the test with E. coli mcr-1+rifampicin; in the test on E. coli WT+rifampicin) was 0.078 µM throughout. Further, the “SPR binding profile” value with wt-OMVs [2] was “accumulation of a tightly bound species and a superimposed saw-tooth profile”; in [4], “indistinguishable from its binding to wt-OMVs; also recorded: identical response to wt-OMVs and resistant-OMVs”. The t1/2 is reported as 1.09 (0.20) h with wt-OMVs [3]; 1.17 (0.57) h in the test with resistant-OMVs (25 °C, OMVs from PmrA^G53E and pmcr1 strains (n=2 each), (SD)). Besides, in the test with resistant-OMVs (polymyxin-resistant-OMVs), the “t1/2 of bound complex” value was “approximately 1 h”. Also, the “antibacterial activity” value with E. coli PmrA^G53E and with E. coli mcr1 was “exhibits antibacterial activity against strains with polymyxin-resistant lipid A modifications” in each case. In addition, in the test on S. aureus WT, the minimal inhibitory concentration (MIC) is over 40 µM.
For the compound Colistin, in the test with wt-OMVs [2], the “SPR binding profile” value is “dominated by the accumulation of tightly bound polymyxin B and a superimposed saw-tooth profile associated with transient binding”.
